Results on 1 compound are retold here after US9051240B2, “Substituted 2-[2-(phenyl) ethylamino] alkaneamide derivatives and their use as sodium and/or calcium channel modulators” (Newron Pharmaceuticals S.P.A., priority 2007, dated 2015).

Experiment [1] relates to mice. Put plainly: Formalin test. In kind it is in vivo. Particulars: Mus musculus, po. As for the experimental part: According to a modified protocol from Rosland et al. (Rosland J. H., Tjolsen A., Maehle B., Hole K. Pain (1990) 42: 235-242), mice were injected subcutaneously (s.c.) with 20 μl of 2.7% solution of formalin into the plantar surface of left hindpaw and placed immediately into clear PVC observation chambers (23×12×13 cm). Pain behaviour was quantified by counting the cumulative licking time (s) of the injected paw. Measurements were taken during the early phase (0-5 min) and late phase (20-40 min) after formalin injection (Tjolsen A., Berge O. G., Hunskaar S., Rosland J. H., Hole K. Pain (1992) 51: 5-17).
The test compound was administered p.o. or s.c. 5-45 minutes before formalin injection in a volume of 10 ml/kg body weight to groups of 10 mice per dose. Control group was treated with vehicle.

The next experiment has as its target MAO-B (Rattus norvegicus (Rat), UniProt P19643). Put plainly: In vitro MAO-B enzyme activity assay (radioenzymatic, rat brain mitochondria). Conditions: 14C-PEA 0.5 μM. In kind it is biochemical. As for the experimental part: Male Wistar rats (Harlan, Italy weighing 175-200 g) were sacrificed under light anaesthesia and brains were rapidly removed and homogenized in 8 volumes of ice-cold 0.32 M sucrose buffer containing 0.1 M EDTA, pH 7.4. The crude homogenate was centrifuged at 2220 rpm for 10 minutes and the supernatant recovered. The pellet was homogenized and centrifuged again. The two supernatants were pooled and centrifuged at 9250 rpm for 10 minutes at +4° C. The pellet was resuspended in fresh buffer and centrifuged at 11250 rpm for 10 minutes at +4° C. The resulting pellet was stored at −80° C. The enzyme activity was assessed with a radioenzymatic assay using the substrate ^14C-phenylethylamine (PEA) specific for MAO-B. The mitochondrial pellet (500 μg protein) was resuspended in 0.1 M phosphate buffer (pH 7.4). 200 μl of the suspension were added to a 50 μl solution of the test compound or buffer, and incubated for 30 min at 37° C. (preincubation) then the substrate (50 μl) was added. The incubation was carried out for 10 minutes at 37° C. (^14C-PEA, 0.5 μM). The reaction was stopped by adding 0.2 ml of perchloric acid. After centrifugation, the deaminated metabolites were extracted with 3 ml of toluene and the radioactive organic phase containing the neutral and/or acidic metabolites formed as a result of MAO-B activity was measured by liquid scintillation spectrometry at 90% efficiency. The MAO-B activity was expressed as nmoles of substrate transformed/mg protein/min.

Another experiment relates to TTXs sodium channels. Description: TTXs-sodium channel influx assay (fluorescence, ND7/23 cell line). It counts as cell-based, rat. Conditions: ND7/23 cells, veratridine 100 μM; read-out: Na+ influx IC50. As for the experimental part:
ND7/23 rat dorsal root ganglion-derived cell line endogenously expresses a mixed population of TTXs sodium channels. These cells lack of TTXr sodium channels as shown by the absence of their respective transcripts.
ND7/23 cells were grown in DMEM supplemented with 10% FBS and 1 mM sodium piruvate. The cells were seeded at 50,000 cells/well on 96 poly-L-lysine-coated plates and further incubated for 18-24 h before use.
The Membrane Potential Kit Assay (Molecular Devices), based on a negatively charged fluorescent dye able to monitor changes in membrane potential caused by the sodium influx due to the channel opening, was used for the assay.
Cells were incubated with the dye loading for 30 minutes at 25° C. Then, 100 nM of the toxin Anemonia sulcata (used as enhancer of the channel opener response) alone or in the presence of TTX (as reference standard) or test compound were added for further 15 minutes.
The fluorescence (excitation:530 nm, emission: 565 nm wavelength) was measured before and after (40-45 s) the automated injection of the sodium channel opener veratridine (100 μM) using a Victor plate reader (Perkin Elmer).
(§1) The inhibition curves were calculated from 5 concentrations, each in triplicate, and the IC50 determined using linear regression analysis.

Experiment [2] concerns the target Na+ currents in rat cortical neurons. Description: Patch clamp evaluation of Na+ currents blockade in rat cortical neurons. In kind it is cell-based. As for the experimental part: Cortical neurons were prepared from embryonic Wistar rats (E17-E19). A female rat at date 17-19 of pregnancy was anesthetized and sacrificed. The fetuses (n=4-5) were dissected and placed in ice-cold Hank's solution (Hank's solution (Life tech.14170-088)+glucose 30%+Pen-Strep 100× (Life Tech. 15140-122) 100U-100 μg/ml and Hepes-NaOH 5 mM). The uterus and placenta were removed, the fetuses were decapitated and the heads were placed in ice-cold Hank's solution. Cells were counted and diluted in Neurobasal medium to a concentration of 400000 cells per poly-D-lysine 5 μg/ml treated Petri dish. Cortical neurons were used from day 6th till day 11th after plating, and once a week Neurobasal medium was changed. Experiments on cortical neurons were carried out using standard whole cell patch clamp methods (Hamill et al., Pfugers Arch., 1981 August, 391(12), 85-100). Membrane currents were recorded and filtered at 5 kHz with an Axon Axopatch 200B amplifier and data digitized with an Axon Digidata 1322A (Axon Instruments, CA, USA). Protocol playing and data acquisition were controlled online with Axon pClamp8 software. Measuring and reference electrodes were AgCl-Ag electrodes. A Sutter Instrument P-87 Puller (CA, USA) was used for pulling patch clamp pipettes with a resistance of 2-3 MΩ from Harward borosilicate glass tubes. Cells were continuously superfused with extracellular solutions, using a solution changer Biologic RSC-200. To test the effect of compounds on sodium currents in cortical neurons, cells were clamped at -90 mV, then a two step protocol was used to determine the voltage dependence of the block. […] Tonic block of resting and depolarized currents at a given drug concentration, was calculated as the difference between the peak Na^+ current in the control external bath solution and peak currents with the test substance divided by control peak. Drug concentration-inhibition curves were obtained by plotting tonic blocks in the resting and depolarized condition, versus drug concentrations. Dose-response curves were fitted to the tonic block data, according to the logistic equation: […] Control bath solution contained (mM): […] Internal pipette solution consisted of (mM): […] Compounds were dissolved as stock solutions (20 mM) in DMSO. They were diluted to the final concentrations in the external solution.
In general terms: Patch clamp records ionic current or voltage across a cell membrane.

The subject of experiment [3] is mice. Description: Maximal electroshock test (MES) in mice. Particulars: Mus musculus, iv; mice, MES, i.v.; read-out: MES ED50 mg/kg i.v. In kind it is in vivo. The source says: The maximal electroshock test (MES) is used commonly in the screening of anti-epileptic drugs in rodent models.
Animals and Apparatus: Male CD1 mice weighing 25 g were used. The procedure described by White et al. (White H. S., Woodhead J. H., Franklin M. R., Swinyard E. A., and Wolf H. H. Antiepileptic Drugs (1995) 4th ed: 99-110, Raven Press, Ltd., New York) was followed. An Ugo Basile electroconvulsive generator (Model ECT UNIT 7801) was used to deliver an electrical stimulus sufficient to produce a hindlimb tonic extensor response in at least 97% of control animals. The stimulus was delivered intra-aurally through clip electrodes in mice (0.7 s of a 40 mA shock, with a pulse train of 80 Hz having a pulse duration of 0.4 ms). The acute effect of compounds administered intraperitoneally (i.p.), subcutaneously (s.c.), intravenously (i.v.) or orally (p.o.) 5-120 minutes before MES induction were examined and compared with a vehicle control group. Ten mice were studied per group. Complete suppression of the hindlimb tonic extensor component of seizures was taken as evidence of anticonvulsant activity.
The compounds of the invention were administered p.o. or i.v., at the doses of 0.1-100 mg/kg.

In another experiment the test system is L-type calcium channels. Description: Calcium channel influx assay (fluorescence, AtT20 cell line). In kind it is cell-based, mouse. Particulars: AtT20 cells, 100 mM KCl depolarization; read-out: Ca++ influx IC50. The procedure:
AtT20/D16v-F2 mouse pituitary tumour cell line preferentially expresses L-type calcium channels.
AtT20 cells were grown in DMEM with 10% of FBS, 4 mM glutamine. The cells were seeded at 200,000 cells/well on 96 poly-L-lysine-coated plates and further incubated for 18-24 h, before use.
The Ca^++ Kit Assay (Molecular Devices), which is based on a fluorescent calcium indicator to detect the calcium influx determined by depolarizing conditions, was used for the assay.
Cells were incubated with the calcium dye loading for 30 min at 37° C. Then, ω-conotoxin alone (1 μM) or in presence of nifedipine (as reference standard) or test compound were added for further 15 min.
The fluorescence (excitation: 485-emission: 535 nm wavelength) was measured before and after (30-40 sec) the automated injection of 100 mM KCl depolarizing solution using a Victor plate reader (Perkin Elmer).
as §1

Each structure is given as a SMILES string. Like-named read-outs stand apart in the source and are kept apart here.

Chain of MAO-B (P19643 whole entry): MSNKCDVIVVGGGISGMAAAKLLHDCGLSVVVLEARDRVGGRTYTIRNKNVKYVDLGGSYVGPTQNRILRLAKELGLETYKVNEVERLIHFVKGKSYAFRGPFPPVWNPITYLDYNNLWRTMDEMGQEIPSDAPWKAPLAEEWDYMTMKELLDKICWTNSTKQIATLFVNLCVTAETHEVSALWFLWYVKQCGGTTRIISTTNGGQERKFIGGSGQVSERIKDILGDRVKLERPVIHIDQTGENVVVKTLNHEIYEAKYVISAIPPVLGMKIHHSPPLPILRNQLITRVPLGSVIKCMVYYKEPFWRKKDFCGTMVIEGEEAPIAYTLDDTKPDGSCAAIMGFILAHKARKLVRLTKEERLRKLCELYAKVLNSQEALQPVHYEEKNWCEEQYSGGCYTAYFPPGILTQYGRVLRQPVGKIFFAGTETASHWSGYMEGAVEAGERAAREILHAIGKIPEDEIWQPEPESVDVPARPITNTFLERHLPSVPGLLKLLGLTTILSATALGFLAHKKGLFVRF

The term IC50 denotes the concentration that gives 50% inhibition. Consider `C[C@H](NCc1ccc(OCc2cccc(F)c2)cc1)C(N)=O` [safinamide, (S)-(+)-2-[4-(3-fluorobenzyloxy)-benzylamino]-propanamide], for which the ED50 in the experiment on mice [1] turned out to be 69.4 mg/kg; in the experiment with mice [3], 4 mg/kg. In addition, the IC50 against MAO-B is 100 nM; with TTXs sodium channels, 7.4 µM; in experiment [2] (preconditioning potential -110 mV, read-out: IC50 resting (Kr)), over 100 µM; in experiment [2] (preconditioning potential ~-50 mV, read-out: IC50 depolarized), 7 µM; in experiment [2] (resting condition, figure in parentheses after >100, read-out: IC50 resting (Kr), value in parentheses), 180 µM; in the experiment on L-type calcium channels, 33 µM. Moreover, the Ki in experiment [2] (calculated from Kr and Kdep, read-out: Ki (apparent affinity for the inactivated state)) was 3.6 µM.
